# Structures can show the parent of a compound that is named as a salt.
# Assays:
# [1] = molecular target: T1, JH2 domain of human Tyk2 (Homo sapiens, UniProt P29597); experiment: JH2 biochemical assay (TR-FRET probe displacement); type: binding; details: JH2 biochemical assay
# T1 construct: 10×His-tagged TYK2 JH2 domain (amino acid 575-876)
# In short: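 10×His-tagged human TYK2 JH2 (aa 575-876, 2 nM) incubated 60 min with 2 nM fluorescent probe, 0.1 nM Tb anti-His antibody and compound (10-point 3-fold series from […] top). TR-FRET 520/495 nm ratio, falling with probe displacement, normalized and fitted to a 4-parameter logistic for IC50.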
# [2] = system: Tyk2 kinase activity on STAT4; experiment: pSTAT4 cell assay (MSD, NK92 cells); type: cell-based; details: compounds 1 hr, stimulated 15 minutes
# Protocol: The inhibitory potency of compounds of the disclosure against the Tyk2 kinase activity on STAT4 was evaluated using an MSD-platform plate-based assay format. NK92 cells natively expressing STAT4 and Tyk2 were serum-starved to reduce background phosphorylation levels, then cells were treated compounds for 1 hr with a 10-point four-fold dilution series starting at 10 μM. Cells were then stimulated with 30 ng/mL IL2 for 15 minutes. Cells were lysed and […] levels were quantitated using an MSD plate-based assay with anti-STAT4 antibodies. The data were normalized and the percent activity versus log concentration of compound were fitted with a 4-parameter logistic model to generate to generate IC50 curves.
# T1 sequence (P29597 575-876): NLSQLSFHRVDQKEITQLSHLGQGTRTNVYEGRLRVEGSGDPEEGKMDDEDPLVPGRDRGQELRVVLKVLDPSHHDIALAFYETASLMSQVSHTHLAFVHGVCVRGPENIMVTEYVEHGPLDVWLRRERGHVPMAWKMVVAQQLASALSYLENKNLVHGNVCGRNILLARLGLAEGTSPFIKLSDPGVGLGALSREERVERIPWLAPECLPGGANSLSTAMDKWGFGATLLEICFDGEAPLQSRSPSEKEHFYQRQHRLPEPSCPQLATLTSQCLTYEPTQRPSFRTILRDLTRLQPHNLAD
SMILES,IC50 [1] [nM],IC50 [2] [nM]
"COc1cc(N2CCc3cnc(NC(C)=O)cc32)nc(C(C)(F)F)n1 [Example 34, N-(1-(2-(1,1-difluoroethyl)-6-methoxypyrimidin-4-yl)-2,3-dihydro-1H-pyrrolo[3,2-c]pyridin-6-yl)acetamide]",10 to 100,≥ 1000
"COCCN(C)c1cc(N2CC3(CC3)c3cnc(NC(C)=O)cc32)nc(C(C)(F)F)n1 [Example 50, N-(1′-(2-(1,1-difluoroethyl)-6-((2-methoxyethyl)(methyl)amino)pyrimidin-4-yl)-1′,2′-dihydrospiro[cyclopropane-1,3′-pyrrolo[3,2-c]pyridin]-6′-yl)acetamide]",≤ 10,100 to 1000
"CC(=O)Nc1cc2c(cn1)C1(CC1)CN2c1cc(N2CCC2)nc(C(C)(F)F)n1 [Example 51, N-(1′-(6-(azetidin-1-yl)-2-(1,1-difluoroethyl)pyrimidin-4-yl)-1′,2′-dihydrospiro[cyclopropane-1,3′-pyrrolo[3,2-c]pyridin]-6′-yl)acetamide]",≤ 10,100 to 1000
"CC(=O)Nc1cc2c(cn1)C1(CC1)CN2c1cc(N2CCOCC2)nc(C(C)(F)F)n1 [Example 52, N-(1′-(2-(1,1-difluoroethyl)-6-morpholinopyrimidin-4-y1)-1′,2′-dihydrospiro[cyclopropane-1,3′-pyrrolo[3,2-c]pyridin]-6′-yl)acetamide]",≤ 10,100 to 1000
"CC(=O)Nc1cc2c(cn1)C1(CC1)CN2c1cc(C(C)C)nc(C(C)(F)F)n1 [Example 53, N-(1′-(2-(1,1-difluoroethyl)-6-isopropylpyrimidin-4-yl)-1′,2′-dihydrospiro[cyclopropane-1,3′-pyrrolo[3,2-c]pyridin]-6′-yl)acetamide]",≤ 10,10 to 100
"CC(=O)Nc1cc2c(cn1)C1(CC1)CN2c1cc(C)nc(C2CC2)n1 [Example 54, N-(1′-(2-cyclopropyl-6-methylpyrimidin-4-yl)-1′,2′-dihydrospiro[cyclopropane-1,3′-pyrrolo[3,2-c]pyridin]-6′-yl)acetamide]",≤ 10,100 to 1000
"CC(=O)Nc1cc2c(cn1)C1(CC1)CN2c1cc(C)nc(C(C)(C)C)n1 [Example 55, N-(1′-(2-(tert-butyl)-6-methylpyrimidin-4-yl)-1′,2′-dihydrospiro[cyclopropane-1,3′-pyrrolo[3,2-c]pyridin]-6′-yl)acetamide]",≤ 10,100 to 1000
"CCCCc1nc(C)cc(N2CC3(CC3)c3cnc(NC(C)=O)cc32)n1 [Example 58, N-(1′-(2-butyl-6-methylpyrimidin-4-yl)-1′,2′-dihydrospiro[cyclopropane-1,3′-pyrrolo[3,2-c]pyridin]-6′-yl)acetamide]",10 to 100,≥ 1000
"CCOCc1nc(C)cc(N2CC3(CC3)c3cnc(NC(C)=O)cc32)n1 [Example 59, N-(1′-(2-(ethoxymethyl)-6-methylpyrimidin-4-yl)-1′,2′-dihydrospiro[cyclopropane-1,3′-pyrrolo[3,2-c]pyridin]-6′-yl)acetamide]",100 to 1000,≥ 1000
"CC(=O)Nc1cc2c(cn1)C1(CC1)CN2c1cc(C)nc(C(F)(F)F)n1 [Example 61, N-(1′-(6-methyl-2-(trifluoromethyl)pyrimidin-4-yl)-1′,2′-dihydrospiro[cyclopropane-1,3′-pyrrolo[3,2-c]pyridin]-6′-yl)acetamide]",10 to 100,≥ 1000
"CC(=O)Nc1cc2c(cn1)C1(CC1)CN2c1cc(C)nc(CC2CC2)n1 [Example 62, N-(1′-(2-(cyclopropylmethyl)-6-methylpyrimidin-4-yl)-1′,2′-dihydrospiro[cyclopropane-1,3′-pyrrolo[3,2-c]pyridin]-6′-yl)acetamide]",≤ 10,100 to 1000
"CC(=O)Nc1cc2c(cn1)C1(CC1)CN2c1cc(C)nc(C(F)F)n1 [Example 63, N-(1′-(2-(difluoromethyl)-6-methylpyrimidin-4-yl)-1′,2′-dihydrospiro[cyclopropane-1,3′-pyrrolo[3,2-c]pyridin]-6′-yl)acetamide]",10 to 100,≥ 1000
"CCc1nc(C)cc(N2CC3(CC3)c3cnc(NC(C)=O)cc32)n1 [Example 64, N-(1′-(2-ethyl-6-methylpyrimidin-4-yl)-1′,2′-dihydrospiro[cyclopropane-1,3′-pyrrolo[3,2-c]pyridin]-6′-yl)acetamide]",10 to 100,≥ 1000
"CCCc1nc(C)cc(N2CC3(CC3)c3cnc(NC(C)=O)cc32)n1 [Example 65, N-(1′-(6-methyl-2-propylpyrimidin-4-yl)-1′,2′-dihydrospiro[cyclopropane-1,3′-pyrrolo[3,2-c]pyridin]-6′-yl)acetamide]",10 to 100,100 to 1000
"CC(=O)Nc1cc2c(cn1)C1(CC1)CN2c1cc(C)nc(C(C)C)n1 [Example 66, N-(1′-(2-isopropyl-6-methylpyrimidin-4-yl)-1′,2′-dihydrospiro[cyclopropane-1,3′-pyrrolo[3,2-c]pyridin]-6′-yl)acetamide]",≤ 10,100 to 1000
"CC(=O)Nc1cc2c(cn1)C1(CC1)CN2c1nc(C)nc(C)c1F [Example 67, N-(1′-(5-fluoro-2,6-dimethylpyrimidin-4-yl)-1′,2′-dihydrospiro[cyclopropane-1,3′-pyrrolo[3,2-c]pyridin]-6′-yl)acetamide]",100 to 1000,≥ 1000
"CC(=O)Nc1cc2c(cn1)C1(CC1)CN2c1cc(C)nc(C2(C)CC2)n1 [Example 69, N-(1′-(6-methyl-2-(1-methylcyclopropyl)pyrimidin-4-yl)-1′,2′-dihydrospiro[cyclopropane-1,3′-pyrrolo[3,2-c]pyridin]-6′-yl)acetamide]",≤ 10,100 to 1000
"CC(=O)Nc1cc2c(cn1)C1(CC1)CN2c1cc(C)nc(C2CCCOC2)n1 (stereo not shown) [Example 70, N-(1′-(6-methyl-2-(tetrahydro-2H-pyran-3-yl)pyrimidin-4-yl)-1′,2′-dihydrospiro[cyclopropane-1,3′-pyrrolo[3,2-c]pyridin]-6′-yl)acetamide]",≤ 10,100 to 1000
"COCCCc1nc(C)cc(N2CC3(CC3)c3cnc(NC(C)=O)cc32)n1 [Example 71, N-(1′-(2-(3-methoxypropyl)-6-methylpyrimidin-4-yl)-1′,2′-dihydrospiro[cyclopropane-1,3′-pyrrolo[3,2-c]pyridin]-6′-yl)acetamide]",10 to 100,≥ 1000
"CC(=O)Nc1cc2c(cn1)C1(CC1)CN2c1cc([C@H]2C[C@@H](C#N)C2)nc(C(C)(F)F)n1 [Example 74, N-(1′-(6-((1s,3s)-3-cyanocyclobutyl)-2-(1,1-difluoroethyl)pyrimidin-4-yl)-1′,2′-dihydrospiro[cyclopropane-1,3′-pyrrolo[3,2-c]pyridin]-6′-yl)acetamide or N-(1′-(6-((1r,3r)-3-cyanocyclobutyl)-2-(1,1-difluoroethyl)pyrimidin-4-yl)-1′,2′-dihydrospiro[cyclopropane-1,3′-pyrrolo[3,2-c]pyridin]-6′-yl)acetamide]",≤ 10,10 to 100
"CC(=O)Nc1cc2c(cn1)C1(CC1)CN2c1cc([C@H]2C[C@H](C#N)C2)nc(C(C)(F)F)n1 [Example 75, N-(1′-(6-((1r,3r)-3-cyanocyclobutyl)-2-(1,1-difluoroethyl)pyrimidin-4-yl)-1′,2′-dihydrospiro[cyclopropane-1,3′-pyrrolo[3,2-c]pyridin]-6′-yl)acetamide or N-(1′-(6-((1s,3s)-3-cyanocyclobutyl)-2-(1,1-difluoroethyl)pyrimidin-4-yl)-1′,2′-dihydrospiro[cyclopropane-1,3′-pyrrolo[3,2-c]pyridin]-6′-yl)acetamide]",≤ 10,100 to 1000
"CC(=O)Nc1cc2c(cn1)C1(CC1)CN2c1nc(C(C)(F)F)cs1 [Example 79, N-(1′-(4-(1,1-difluoroethyl)thiazol-2-yl)-1′,2′-dihydrospiro[cyclopropane-1,3′-pyrrolo[3,2-c]pyridin]-6′-yl)acetamide trifluoroacetate]",10 to 100,≥ 1000
"CC(=O)Nc1cc2c(cn1)C1(CC1)CN2c1nc(C)c(C)s1 [Example 80, N-(1′-(4,5-dimethylthiazol-2-yl)-1′,2′-dihydrospiro[cyclopropane-1,3′-pyrrolo[3,2-c]pyridin]-6′-yl)acetamide]",10 to 100,≥ 1000
"CC(=O)Nc1cc2c(cn1)C1(CC1)CN2c1nc(C2CCCOC2)cs1 (stereo not shown) [Example 81, N-(1′-(4-(tetrahydro-2H-pyran-3-yl)thiazol-2-yl)-1′,2′-dihydrospiro[cyclopropane-1,3′-pyrrolo[3,2-c]pyridin]-6′-yl)acetamide trifluoroacetate]",10 to 100,≥ 1000
"CC(=O)Nc1cc2c(cn1)C1(CC1)CN2c1nc(C2CCOC2)c(C)s1 (stereo not shown) [Example 82, N-(1′-(5-methyl-4-(tetrahydrofuran-3-yl)thiazol-2-yl)-1′,2′-dihydrospiro[cyclopropane-1,3′-pyrrolo[3,2-c]pyridin]-6′-yl)acetamide trifluoroacetate]",≤ 10,100 to 1000
"COCCOc1cc(N2CC3(CC3)c3cnc(NC(C)=O)cc32)nc(C(C)(F)F)c1 [Example 86, N-(1′-(6-(1,1-difluoroethyl)-4-(2-methoxyethoxy)pyridin-2-yl)-1′,2′-dihydrospiro[cyclopropane-1,3′-pyrrolo[3,2-c]pyridin]-6′-yl)acetamide]",≤ 10,≤ 10
